Source: patent publication US5698674A, “Triheterocyclic peptides capable of binding the minor and major grooves of DNA” (The Regents of the University of California, priority 1994, dated 1997)
“And” between values parts separate entries of the source, which are not always exact repeats. Identical values can stand only once. “Also recorded” adds a separate entry of the source. Like-named read-outs stand apart in the source and are kept apart here.

Legend:
[1] = system: d(CGCA3 T3 GCG (SEQ ID NO:3))2; conditions: 30° C; Pelton et al., 1990; cited from earlier work
mice = conditions: cited from earlier work
[2] = system: d(GGCGCAAATTTGGCGG)(SEQ ID NO:1)/d(CCGCCAAATTTGCGCC)(SEQ ID NO:2); conditions: hexadecamer; Browne et al., 1993; cited from earlier work
[3] = target: d(GGCGCAAATTTGGCGG)(SEQ ID NO:1)/d(CCGCCAAATTTGCGCC)(SEQ ID NO:2); assay: Hoechst 33258 (Ht) fluorescence competition, equilibrium association constants with hexadecamer duplex; assay type: binding; conditions: for log KL1: association constant of first ligand, H2O, 10 mM phosphate buffer, pH 7.0, 10 mM NaCl, 35° C, for Ht = log KHt1, Dm, 2, 5a-c recalculated from previously collected data; for log KL1 / log KL2 / log KHtL: mean ± SD; for log KL1 / log KL2: Ht; for log KL2: association constant of second ligand, for Ht = log KHt2, Dm, 2, 5a-c recalculated; for log KHtL: binding of L to DNA:Ht; for log KL1 KL2: complex association constant
Protocol: Equilibrium constants for the association of 6a and 6b with oligomeric DNA were assessed by the complexing of tren-microgonotropen-a and -b to the hexadecamer d(GGCGCAAATTTGGCGG)(SEQ ID NO:1)/d(CCGCCAAATTTGCGCC)(SEQ ID NO:2) in aqueous solutions at 35° C. (2.8 mL solutions containing 0.01M phosphate buffer, pH 7.0, and 0.01M NaCl).
These reactions were followed by the competition of the dye Hoechst 33258 (Ht) with 6a and 6b for the A3 T3 minor groove binding site (an extension of Ht alone binding to dsDNA). The concentrations of 6a and 6b were confirmed by ^1 H NMR peak integration of resonances with those of an equivalent concentration of mesitoate.
As shown previously (Browne, K. A.; He, G.-X.; Bruice, T. C. J. Am. Chem. Soc. 1993, 115, 7072), monitoring the increase in fluorescence intensity as the association of Ht with the hexadecamer displaces prebound nonfluorescent ligands is an excellent method for determining equilibrium binding constants. FIG. 17 relates the equilibrium constants for the complexing of one and two Ht species to the hexadecamer with one and two L (where L=6a or 6b) binding to the hexadecamer, plus equilibrium constants for the simultaneous binding of one Ht and one L at the same site. [formula]
Eq 1, derived from FIG. 17, relates each of the equilibrium binding constants, the total fluorescence (Σθ), and [L] in terms of fluorescence (F) and [Ht]. The rationale behind FIG. 17 and the subsequent derivation of eq 1 have been described in considerable detail (Browne, et al., 1993, supra). The values of log KHt1 =7.6 and log KHt2 =9.1 used were determined from a reevaluation of data previously collected (Browne, et al., 1993, supra) and are very close to the previously determined values. A concentration independent static quenching term, Q', is included in eq 1 to account for the lessened fluorescent emission of the DNA:Ht:L complex compared to the DNA:Ht and DNA:Ht2 complexes.
The equilibrium association constants calculated as best fits to the experimental data points for 6a and 6b with eq 1 are presented in Table I. Plots of F vs. [Ht] using these constants at 8.0×10^-9, 1.0×10^-8, and 1.2×10^-8 M ligand and 5.0×10^-9 M in hexadecamer duplex are shown in FIGS. 3a and 3b.
Reagents and methods for DNA binding studies were exactly the same as used previously (He, et al., 1993, supra; Browne, et al., 1993, supra) unless stated otherwise. The values for the equilibrium constants for 2, 5a,b,c, Dm, and Ht were recalculated from previously collected data (Browne, et al., 1993, supra) using the curve fitting program SigmaPlot® 4.1.4 (Jandel Scientific, San Rafael, Calif.). The equilibrium constants for 6a and 6b were calculated with SigmaPlot® 4.1.4 using the reevaluated constants for Ht (KHt1 and KHt2).

[4] = system: .phi.X-174-RF DNA HaeIII restriction digest fragments; assay: Electrophoretic mobility shift assay; assay type: binding; conditions: for change in electrophoretic behavior: 150 μM; for RL vs. agent concentration: 1078 bp fragment; for order of effectiveness in increasing the apparent length of DNA fragments: RL values
[5] = system: 167 bp EcoRI/RsaI pBR322 restriction fragment; assay: DNase I footprint analysis; assay type: binding
[6] = system: calf thymus topoisomerase I; assay: Topoisomerase I inhibition assays (relaxation of supercoiled pBR322); assay type: biochemical; conditions: for inhibition of topoI after partial relaxation: added after 0.5 hr topoI incubation, then 18 hr; for inhibition of topoI relaxation of supercoiled pBR322: agent preincubated with DNA 1 hr before 18 hr topoI reaction, 37° C
Protocol: Inhibition of topoI's action on supercoiled pBR322 by 6b was compared to inhibition by Dm and 5b (dien-microgonotropen-b). In the first set of experiments, each agent was allowed to incubate with the DNA for 1 hr prior to the 18 hr topoI reaction period.
In closely related experiments, the mode of inhibition of topoI was examined. This was accomplished by allowing the supercoiled DNA to be partially relaxed for 0.5 hr with topoI before any other DNA ligands were added (FIG. 6).
The buffer for all of the 50 μL reactions was composed of 50 mM Tris-HCl, pH 7.5, 50 mM KCl, 10 mM MgCl2, and 1 mM EDTA that was filtered through a sterile 0.45μ Gelman Sciences Acrodisc. Every reaction mixture contained 1 μg of supercoiled pBR322 plasmid (Pharmacia) and, except for the supercoiled control, every reaction mixture included 10 units of calf thymus topoisomerase I (Bethesda Research Laboratories).
All reactions were extracted twice with water-saturated phenol, extracted once with chloroform, and precipitated with ammonium acetate and ethanol.
The different helical forms of pBR322 created by the relaxation assays were electrophoretically separated through a 4% NuSieve 3:1 (hydroxyethylated) agarose gel (vertical, 0.8 mm) in 40 mM Tris-acetate, pH 8.0 and 1 mM EDTA for 8 hr at 2 V/cm.

[7] = system: d(CGCA3 T3 GCG (SEQ ID NO:3))2; assay: Dynamics of ligand exchange in the 1:1 complex (ROESY NMR); assay type: binding; conditions: 10° C
Protocol: The data matrix was zero filled to 2K and appodized with a gaussian function to give a line broadening of 1 Hz in both frequency domains. The ROESY experiment was recorded at 10° C. using the Kessler pulse sequence (Kessler, H.; Griesinger, C.; Kerssebaum, R.; Wagner, E.: Ernst, R. J Am. Chem. Soc. 1987, 109, 607) with a mixing time of 50 ms and a locking field strength of 2.5 kHz.
The linearity of the NOE build-up with tm was checked for most of the dsDNA proton interactions between 50 and 180 ms and a 5-20 fold increase was found in the NOE volume integrals from the 50 to 180 ms mixing times. The exchange rate (kex) was calculated from eq 3 as follows:
kex =ln((1+R)/2.tau.m (1-R)), s^-1 eq(3) […]
The free energy of activation, ΔG*, for this exchange process at a certain temperature, T (K), was calculated from eq 4 (Gunther, H. "NMR Spectroscopy: An Introduction", John Wiley, New York, 1980, p. 241).
Exchanges between two equivalent binding sites have been proposed for dsDNA complexes of distamycin (Pelton et al., 1990, supra) and netropsin (Patel et al., 1985, supra). If we consider that the exchange is governed by a "flip-flop" mechanism (Pelton et al., 1990, supra) (FIG. 18), not excluding the possible existence of a fast sliding motion of 6b in the minor groove, the rate of exchange can be calculated (Experimental Section).

[8] = 25 and 50 μM (0.25 and 0.5 ligand/bp DNA)

Row | Compound | log KL1 [3] | log KL2 ([3]; pH 7.0, 35° C) | log KHtL ([3]; pH 7.0, 35° C) | log KL1 KL2 ([3]; pH 7.0, 35° C) | change in electrophoretic behavior [4] | RL vs. agent concentration [4] | order of effectiveness in increasing the apparent length of DNA fragments [4] [a^~ 6b>>distamycin>tren] | inhibition of DNase I cleavage at the four A+T-rich binding sites ([5]; 5 μM (0.05 ligand/bp DNA)) | inhibition of DNase I cleavage at the four A+T-rich binding sites [5, 8] | other results
1 | Cn1cc(NC(=O)c2cc(NC(=O)c3cc(NC=O)cn3C)cn2C)cc1C(=O)NCCC(=N)N [Dm, Distamycin] | 7.6 ± 0.09 | 8.4 ± 0.08 | 8.8 ± 0.09 | 16.0 | smaller changes at 150 μM (0.66 ligand/bp) than 6a or 6b at 40 μM | does not demonstrate very marked changes even at the highest concentrations examined | 6 | did not produce detectable inhibition of DNase I cleavage | specific inhibition of cleavage was observed at three of the four sites | rate constant for exchange [1]: 0.2 s⁻¹; LD50 (mice; i.p.): 500 mg/kg; LD50 (mice; i.v.): 75 mg/kg; equilibrium constant for 1:1 complex formation [2]: 4e+07 M⁻¹; enhancements in or increased rates of DNase I cleavage at specific sequences ([5]; highest concentrations, 5'- and 3'-labeled fragments): showed enhancements similar to those found previously; inhibition of topoI after partial relaxation ([6]; 150 μM): no effect; inhibition of topoI relaxation of supercoiled pBR322 ([6]; 150 μM): only partially inhibited; also recorded: partial inhibition
2 | CC(=O)Nc1cc(C(=O)Nc2cc(C(=O)Nc3cc(C(=O)NCCCN(C)C)n(C)c3)n(CCCCNCCN(CCN)CCN)c2)n(C)c1 [Compound 6b] | 8.9 ± 0.08 | 9.0 ± 0.2 | 10.3 ± 0.1 | 17.9 |  | quite concentration dependent and sigmoidal in response | 6 | did not produce detectable inhibition of DNase I cleavage | specific inhibition of cleavage was observed at three of the four sites | KL1 (association constant) ([3]; first ligand, hexadecamer A3T3 site, pH 7.0, 35° C): 7.9e+08 M⁻¹ and 8e+08 M⁻¹; complex equilibrium association constants (KL1 KL2) ([3]; hexadecamer, Table I): 8×10^17 M^-2; quenching of Ht fluorescence ([3]; in DNA:Ht:L complex, from Q'): 36%; KL2 ([3]; second ligand, hexadecamer, pH 7.0, 35° C): 1e+09 M⁻¹; electrophoretic mobility of DNA restriction fragments ([4]; increasing concentration 20, 40, 60, 80 μM): the mobility of DNA restriction fragments decreases; activation energy (ΔG*) of exchange [7]: ~ 17 kcal/mol; inhibition of topoI relaxation of supercoiled pBR322 ([6]; 10 μM): the predominant isomer is the fully supercoiled species; inhibition of topoI after partial relaxation ([6]; 30 μM): inhibited topoI even after pBR322 was considerably unwound; inhibition of topoI relaxation of supercoiled pBR322 ([6]; 30 μM): complete inhibition of topoI
3 | NCCN(CCN)CCN [Tren, tris(2-aminoethyl)amine] |  |  |  |  | no apparent change in electrophoretic behavior |  | 6 |  |  | 
4 | CN1CCN(c2ccc3[nH]c(-c4ccc5[nH]c(-c6ccc(O)cc6)nc5c4)nc3c2)CC1 [Ht, Hoechst 33258] | 7.6 and 7.6 ± 0.1 | 9.1 and 9.1 ± 0.2 |  |  |  |  |  |  |  | 
